Measured values taken from patent US20220096516A1, “OLIGONUCLEOTIDE MOLECULE AND APPLICATION THEREOF IN TUMOR THERAPY” (Ractigen Therapeutics, priority 2019, published 2022).
d = 2'-deoxy (DNA); r = 2'-OH (RNA)

Legend:
Assay type in all cases: cell-based, human
Hep3B cells = test: Cell viability by CCK-8 method, Hep3B; conditions: 10 nM, 72 h, FIG. 6B
Description: (§1) 8 LHPP promoter-targeting saRNAs were individually transfected into liver cancer cells at 10 nM for 72 h. In FIG. 6A, the expression level of LHPP mRNA was analyzed by RT-qPCR. In FIG. 6B, cell viability in the saRNA treatment group was evaluated by the CCK-8 method and recorded as a percentage relative to the viability of cells in a control (Mock) treatment group.
(§2) The cell viability was detected by the following CCK-8 method: the cCells were plated into a 96-well plate at 3-5×10^3 cells/well, cultured overnight, and transfected with the oligonucleotide duplexes. After 72 hour of transfection, 10 uL of CCK-8 solution (Dojindo Molecular Technologies) was added into each well. After 1 hour of incubation at 37° C., a microplate reader was used to measure absorbances at 450 nm. […]

HepG2 cells [1] = test: saRNA in combination with chemical drugs, CCK-8 viability and combination index (Compusyn), HepG2
Description: The saRNAs were transfected into cancer cells at different concentrations in combination with a panel of chemical drugs. In FIG. 8A, cell viability in the saRNA treatment group was evaluated by the CCK-8 method and recorded as a percentage relative to the viability of cells in a control (Mock) treatment group. In FIG. 8B, Compusyn© version 1.0 software was used to draw a combination index graphs; and to calculate combination index values as shown in FIG. 8C.
The compounds used in the study included: Sorafenib (Sora) (SELLECK, S1040), Lenvatinib (Lenv) (SELLECK, S1164), Regorafenib (Rego) (SELLECK, S1178), and Cabozantinib (Cabo) (SELLECK, S1119). Cells were transfected with each candidate saRNAs at varying concentration gradients for 24 hours. Thereafter, the aforementioned compounds were added to the transfected cells at a concentration of 5 μM and the cells were incubated with the compounds for 48 hours. Cell viability was measured using the CCK-8 method. Compusyn© version 1.0 software (ComboSyn, Inc. Paramus, N.J., USA) was used to analyze the combination index (CI) of drugs, wherein CI<1 represented a synergistic effect, CI=1 represented an additive effect, and CI>1 represented an antagonistic effect.

HepG2 cells [2] = test: Cell viability by CCK-8 method, HepG2; conditions: HepG2, 10 nM, 72 h, FIG. 6B
Description: as §1, §2

## RAG7-133: saRNA duplex; sense GCUCUUUGUCCGCUGAUCUTT (SEQ ID NO: 1), antisense AGAUCAGCGGACAAAGAGCTT (SEQ ID NO: 165) (sugars from the 5' end r19 d2, backbone not given here)
Hep3B cells
  cell proliferation (cell viability, CCK-8): inhibited cell proliferation
HepG2 cells [1]; high dose (25 nM to 100 nM) saRNA with Regorafenib 5 μM
  combination index (CI): < 0.3
HepG2 cells [1]; saRNA with Cabozantinib 5 μM
  combination index (CI): < 1
HepG2 cells [1]; saRNA with Lenvatinib 5 μM
  combination index (CI): > 1
HepG2 cells [1]; saRNA with Sorafenib 5 μM
  combination index (CI): < 1
HepG2 cells [2]
  cell proliferation (cell viability, CCK-8): inhibited cell proliferation
